# Active and inactive are the calls of the source. The calls are words filed in the database; no cut-off is given here.
# Experiments:
# [1] = tested on: SW-620; assay: Downregulation of PROX1 level in human SW620 cells measured after 12 hrs by immunoblot analysis; assay type: functional, cell-based; conditions: dose 1.25-10 µM
# [2] = tested on: SW-620; assay: Antitumor activity against human SW620 cells xenografted in Balb/c nude mouse model assessed as decrease in cleaved caspase 3 level at 15 mg/kg/day measured after 14 days by Western blot analysis; assay type: functional, organism-based; conditions: time 14.0 day
# [3] = tested on: SW480; assay: Cytotoxicity against human SW480 cells transfected with ATM shRNA assessed as reduction in cell viability measured after 48 hrs by MTT assay; conditions: SW480, 48 h
# [4] = tested on: SW-620; assay: Antitumor activity against human SW620 cells xenografted in Balb/c nude mouse model assessed as necrosis at 15 mg/kg/day measured after 14 days by H and E staining based analysis; assay type: functional, organism-based; conditions: time 14.0 day
# [5] = Toxicity in Balb/c nude mouse assessed as effect on body weight loss at 15 mg/kg/day administered for 14 days […]; assay type: organism-based; conditions: in vivo, 336 h, time 14 day
# [6] = tested on: K562; assay: Upregulation of cleaved caspase 3 level in human K562 cells at 5 to 20 uM measured after 8 hrs by immunoblot analysis; assay type: functional, cell-based; conditions: dose 5-20 µM
# [7] = tested on: LoVo; assay: Cytotoxicity against human LoVo cells assessed as reduction in cell viability incubated for 48 hrs by MTT assay
# [8] = tested on: SW480; assay: Downregulation of BCL2 level in human SW480 cells at 5 to 20 uM measured after 8 hrs by immunoblot analysis; assay type: functional, cell-based; conditions: dose 5-20 µM
# [9] = tested on: SW13; assay: Cytotoxicity against human SW13 cells assessed as reduction in cell viability incubated for 48 hrs by MTT assay; conditions: SW13, 48 h
# [10] = tested on: SW-620; assay: Induction of apoptosis in human SW620 cells measured after 12 hrs by Annexin V-FITC/propidium iodide staining-based flow cytometric analysis; assay type: functional, cell-based; conditions: dose 5-10 µM
# [11] = tested on: SW-620; assay: Downregulation of KDM4B level in human SW620 cells at 10 uM measured after 12 hrs in presence of tert-butyl ((S)-1-((2S,4R)-4-hydroxy-2-((4-(4-methylthiazol-5-yl)benzyl)carbamoyl)pyrrolidin-1-yl)-3,3-dimethyl-1-oxobutan-2-yl)carbamate by immunoblot analysis; assay type: functional, cell-based
# [12] = tested on: SW-620; assay: Antitumor activity against human SW620 cells xenografted in Balb/c nude mouse model assessed as decrease in ATM protein level at 15 mg/kg/day measured after 14 days by Western blot analysis; assay type: functional, organism-based; conditions: time 14.0 day
# [13] = tested on: RKO; assay: Cytotoxicity against human RKO cells assessed as reduction in cell viability incubated for 48 hrs by MTT assay
# [14] = tested on: A2780; assay: Cytotoxicity against human A2780 cells assessed as reduction in cell viability incubated for 48 hrs by MTT assay; conditions: A2780, 48 h
# [15] = tested on: SW480; assay: Downregulation of BCL2 level in human SW480 cells at 1.25 to 10 uM measured after 12 hrs by immunoblot analysis; assay type: functional, cell-based; conditions: dose 1.25-10 µM
# [16] = tested on: SW-620; assay: Induction of cell cycle arrest in human SW620 cells assessed as accumulation of cells at G0/G1 phase incubated for 12 hrs by flow cytometry based analysis; assay type: functional; conditions: dose 5-10 µM
# [17] = Downregulation of ATM level in human SW620 cells transfected with ATM shRNA by immunoblot analysis; assay type: functional, SW-620
# [18] = tested on: SW-620; assay: Cytotoxicity against human SW620 cells assessed as reduction in cell viability incubated for 48 hrs by MTT assay; conditions: SW-620, 48 h
# [19] = Downregulation of ATM level in human SW480 cells transfected with ATM shRNA by immunoblot analysis; assay type: functional
# [20] = tested on: SW480; assay: Cytotoxicity against human SW480 cells assessed as reduction in cell viability incubated for 48 hrs by MTT assay; conditions: SW480, 48 h
# [21] = tested on: SW-620; assay: Antitumor activity against human SW620 cells xenografted in Balb/c nude mouse model assessed as increase in cleaved-caspase 3 level at 15 mg/kg/day measured after 14 days by Western blot analysis; assay type: functional, organism-based; conditions: time 14.0 day
# [22] = tested on: SW-620; assay: Induction of DNA damage in human SW620 cells assessed as gamma-H2AX accumulation at 10 uM by immunoblot analysis; assay type: functional, cell-based; conditions: time <= 24.0 hrs, TDE = time-dependent effect
# [23] = tested on: COLO 205; assay: Cytotoxicity against human COLO 205 cells assessed as reduction in cell viability incubated for 48 hrs by MTT assay; conditions: COLO 205, 48 h
# [24] = tested on: K562; assay: Downregulation of ATM level in human K562 cells at 20 uM by immunoblot analysis; assay type: functional, cell-based; conditions: time <= 24.0 hrs, TDE = time-dependent effect
# [25] = tested on: SW-620; assay: Upregulation of cleaved caspase 3 level in human SW620 cells at 1.25 to 10 uM measured after 12 hrs by immunoblot analysis; assay type: functional, cell-based; conditions: dose 1.25-10 µM
# [26] = Downregulation of ATM level in human HCT-116 cells transfected with ATM shRNA by immunoblot analysis; assay type: functional
# [27] = tested on: NCI-H358; assay: Cytotoxicity against human NCI-H358 cells assessed as reduction in cell viability incubated for 48 hrs by MTT assay; conditions: NCI-H358, 48 h
# [28] = tested on: SW-620; assay: Downregulation of PROX1 level in human SW620 cells at 10 uM measured after 12 hrs in presence of tert-butyl ((S)-1-((2S,4R)-4-hydroxy-2-((4-(4-methylthiazol-5-yl)benzyl)carbamoyl)pyrrolidin-1-yl)-3,3-dimethyl-1-oxobutan-2-yl)carbamate by immunoblot analysis; assay type: functional, cell-based
# [29] = tested on: K562; assay: Induction of DNA damage in human K562 cells assessed as gamma-H2AX accumulation at 20 uM incubated for 8 hrs by immunoblot analysis; assay type: functional, cell-based
# [30] = tested on: SW-620; assay: Antitumor activity against human SW620 cells xenografted in Balb/c nude mouse model assessed as reduction in tumor load at 15 mg/kg/day administered for 14 days in presence of AZD6738 by vernier caliper based analysis; assay type: functional, organism-based; conditions: time 14.0 day
# [31] = tested on: SW480; assay: Downregulation of ATM level in human SW480 cells measured after 12 hrs by immunoblot analysis; assay type: functional, cell-based; conditions: dose 1.25-10 µM
# [32] = tested on: SW-620; assay: Antitumor activity against human SW620 cells xenografted in Balb/c nude mouse model assessed as increase in gamma-H2AX at 15 mg/kg/day measured after 14 days by Western blot analysis; assay type: functional, organism-based; conditions: time 14.0 day
# [33] = tested on: SW-620; assay: Cytotoxicity against human SW620 cells transfected with ATM shRNA assessed as reduction in cell viability measured after 48 hrs by MTT assay; conditions: SW-620, 48 h
# [34] = tested on: HCT-116; assay: Cytotoxicity against human HCT-116 cells transfected with ATM shRNA assessed as reduction in cell viability measured after 48 hrs by MTT assay; conditions: HCT-116, 48 h
# [35] = tested on: K562; assay: Induction of DNA damage in human K562 cells assessed as accumulation of phosphorylated-chk2 (Thr68) at 20 uM by immunoblot analysis; assay type: functional, cell-based; conditions: time <= 12.0 hrs, TDE = time-dependent effect
# [36] = Downregulation of ATM level in human SW480 cells transfected with NC shRNA by immunoblot analysis; assay type: functional
# [37] = tested on: SW-620; assay: Downregulation of ATM level in human SW620 cells measured after 12 hrs by immunoblot analysis; assay type: functional, cell-based; conditions: dose 2.5-10 µM
# [38] = tested on: SW480; assay: Upregulation of cleaved caspase 3 level in human SW480 cells at 1.25 to 10 uM measured after 12 hrs by immunoblot analysis; assay type: functional, cell-based; conditions: dose 1.25-10 µM
# [39] = tested on: SW-620; assay: Induction of DNA damage in human SW620 cells assessed as accumulation of phosphorylated-chk2 (Thr68) at 10 uM by immunoblot analysis; assay type: functional, cell-based; conditions: time <= 24.0 hrs, TDE = time-dependent effect
# [40] = tested on: SW-620; assay: Potentiation of AZD6738 induced DNA damage in human SW620 cells assessed as gamma-H2AX accumulation in nuclei at 5 uM incubated for 12 hrs by immunohistochemical staining based analysis; assay type: functional, cell-based
smiles,measurement,setting,value
Cc1ncsc1-c1ccc(CNC(=O)[C@@H]2C[C@@H](O)CN2C(=O)[C@@H](NC(=O)CCCCCn2cc(CCCN3C(=O)/C(=C4/C(=O)Nc5ccccc54)c4ccccc43)nn2)C(C)(C)C)cc1,Activity,[1],Dose-Dependent Effect
same,Activity,[2],Active
same,IC50,[3],12.1 µM
same,Activity,[4],Active
same,Activity,[5],Non-Toxic
same,Activity,[6],Active
same,IC50,[7],6.73 µM
same,Activity,[8],Active
same,IC50,[9],3.31 µM
same,Activity,[10],Dose-Dependent Effect
same,Activity,[11],Active
same,Activity,[12],Active
same,IC50,[13],3.95 µM
same,IC50,[14],3.96 µM
same,Activity,[15],Active
same,Activity,[16],Dose-Dependent Effect
same,Activity,[17],25%
same,IC50,[18],3.7 µM
same,Activity,[19],23%
same,IC50,[20],2.59 µM
same,Activity,[21],Active
same,Activity,[22],Tde
same,IC50,[23],5.11 µM
same,Activity,[24],Tde
same,Activity,[25],Active
same,Activity,[26],15%
same,IC50,[27],> 20 µM
same,Activity,[28],Active
same,Activity,[29],Active
same,Activity,[30],Active
same,Activity,[31],Dose-Dependent Effect
same,Activity,[32],Active
same,IC50,[33],9.81 µM
same,IC50,[34],26.4 µM
same,Activity,[35],Tde
same,Activity,[36],100%
same,Activity,[37],Dose-Dependent Effect
same,Activity,[38],Active
same,Activity,[39],Tde
same,Activity,[40],Active
